Article PMC11148080, “Ru(II)-based complexes containing 2-thiouracil derivatives suppress liver cancer stem cells by targeting NF-κB and Akt/mTOR signaling” (Cell Death Discovery, 2024)
Where “and” joins values, the source holds several entries; their conditions need not be identical. Equal entries are not always repeated.

Experiments:
Assay type in all cases: cell-based, human
[1] = system: HepG2 cells; assay: DNA content assay (internucleosomal DNA fragmentation, cell cycle); settings: HepG2, 72 h, control 5.6%
Procedure: Internucleosomal DNA fragmentation and cell cycle distribution were determined by a DNA content assay. The cells were stained with PI using a solution containing 0.1% Triton X-100, 2 µg/mL PI, 0.1% sodium citrate, and 100 μg/mL RNAse (all from Sigma‒Aldrich) and incubated in the dark for 15 min at room temperature. For all flow cytometry analyses, cellular fluorescence was measured using a BD LSRFortessa cytometer, BD FACSDiva software (BD Biosciences) and FlowJo software 10 (FlowJo LLC; Ashland, OR, USA). A minimum of 10,000 events were obtained per sample for intracellular staining, and a minimum of 30,000 events per sample were acquired for cell surface protein staining. Doublets were removed using FSC-A vs FCS-H and SCC-A vs SCC-H. Cellular debris was excluded from the analysis.

[2] = system: SCC4; assay: Alamar Blue cytotoxicity; settings: SCC4, 72 h
Procedure: (§1) The Alamar Blue assay was used to measure cell viability, as previously described. Adherent cells were seeded in 96-well plates at a density of 7 × 10^3 cells per well, and suspended cells were seeded at 3 × 10^4 cells per well. Drugs were added to each well after overnight incubation for adherent cells or immediately after seeding for suspension cells, and incubation continued for an additional 72 h. The positive control included doxorubicin (Laboratorio IMA S.A.I.C., Buenos Aires, Argentina). Four hours (for cell lines) or 24 h (for primary cultures) before the end of incubation, 20 μL of resazurin (30 μM) (Sigma‒Aldrich Co. St. Louis, MO, USA) was added to each well. The absorbance at 570 and 600 nm was measured using a SpectraMax 190 microplate reader (Molecular Devices, Sunnyvale, CA, USA).

[3] = system: SCC-25; assay: Alamar Blue cytotoxicity; settings: SCC-25, 72 h
Procedure: as §1

[4] = system: MCF-7; assay: Alamar Blue cytotoxicity; settings: MCF-7, 72 h
Procedure: as §1

[5] = system: K-562; assay: Alamar Blue cytotoxicity; settings: K-562, 72 h
Procedure: as §1

[6] = system: OVCAR-3; assay: Alamar Blue cytotoxicity; settings: OVCAR-3, 72 h
Procedure: as §1

[7] = system: A549; assay: Alamar Blue cytotoxicity; settings: A549, 72 h
Procedure: as §1

[8] = system: A-375; assay: Alamar Blue cytotoxicity; settings: A-375, 72 h
Procedure: as §1

[9] = system: PANC-1; assay: Alamar Blue cytotoxicity; settings: PANC-1, 72 h
Procedure: as §1

[10] = system: THP-1; assay: Alamar Blue cytotoxicity; settings: THP-1, 72 h
Procedure: as §1

[11] = system: SCC-9; assay: Alamar Blue cytotoxicity; settings: SCC-9, 72 h
Procedure: as §1

[12] = system: CAL 27; assay: Alamar Blue cytotoxicity; settings: CAL 27, 72 h
Procedure: as §1

[13] = system: KG-1a; assay: Alamar Blue cytotoxicity; settings: KG-1a, 72 h
Procedure: as §1

[14] = system: U-87 MG; assay: Alamar Blue cytotoxicity; settings: U-87 MG, 72 h
Procedure: as §1

[15] = system: DU 145; assay: Alamar Blue cytotoxicity; settings: DU 145, 72 h
Procedure: as §1

[16] = system: Jurkat; assay: Alamar Blue cytotoxicity; settings: Jurkat, 72 h
Procedure: as §1

[17] = system: MDA-MB-231; assay: Alamar Blue cytotoxicity; settings: MDA-MB-231, 72 h
Procedure: as §1

[18] = system: HSC-3; assay: Alamar Blue cytotoxicity; settings: HSC-3, 72 h
Procedure: as §1

[19] = system: NB4; assay: Alamar Blue cytotoxicity; settings: NB4, 72 h
Procedure: as §1

[20] = system: HCT116; assay: Alamar Blue cytotoxicity; settings: HCT116, 72 h
Procedure: as §1

[21] = system: HepG2; assay: Alamar Blue cytotoxicity; settings: HepG2, 72 h
Procedure: as §1

[22] = system: HL-60; assay: Alamar Blue cytotoxicity; settings: HL-60, 72 h
Procedure: as §1, with “The positive control included doxorubicin (Laboratorio IMA S.A.I.C., Buenos Aires, Argentina).” left out

[23] = system: BJ; assay: Alamar Blue cytotoxicity, noncancerous cells; settings: 72 h
Procedure: as §1

[24] = system: MRC-5; assay: Alamar Blue cytotoxicity, noncancerous cells; settings: MRC-5, 72 h
Procedure: as §1

For `F[P-](F)(F)(F)(F)F.O=c1cc[nH]c([S][Ru+])n1.c1ccc(-c2ccccn2)nc1.c1ccc(P(c2ccccc2)c2ccccc2)cc1.c1ccc(P(c2ccccc2)c2ccccc2)cc1` [Complex 1, trans-[Ru(2TU)(PPh3)2(bipy)]PF6], which “DNA fragmentation (sub-G0/G1)” value ([1]; 2 µM) is on record?
Its value is 12.3%.

What about the “DNA fragmentation (sub-G0/G1)” value ([1]; 4 µM) of the same compound?
Its value is 26.7%.

And the “DNA fragmentation (sub-G0/G1)” value ([1]; 8 µM)?
The value was 43.1%.

What about the IC50 [2] of the same compound?
The IC50 was 4.77 µM.

And the IC50 [3]?
Its IC50 is 7.61 µM.

What about the IC50 [4] of the same compound?
Its IC50 is 9.21 µM.

And the IC50 [5]?
Its IC50 is 6.77 µM.

And the IC50 [6]?
The IC50 was 2.4 µM and 2.43 µM.

And the IC50 [7]?
Its IC50 is 17.5 µM.

What about the IC50 [8] of the same compound?
The IC50 was 3.01 µM.

And the IC50 [9]?
Its IC50 is 9.45 µM.

And the IC50 [10]?
Its IC50 is 4.75 µM.

What about the IC50 [11] of the same compound?
The IC50 was 4.4 µM.

What about the IC50 [12] of the same compound?
The IC50 was 2.66 µM.

And the IC50 [13]?
Its IC50 is 4.77 µM.

And the IC50 [14]?
Its IC50 is 3.53 µM.

And the IC50 [15]?
The IC50 was 7.6 µM.

What about the IC50 [16] of the same compound?
Its IC50 is 5.07 µM.

And the IC50 [17]?
Its IC50 is 2.62 µM.

And the IC50 [18]?
The IC50 was 8.36 µM.

What about the IC50 [19] of the same compound?
Its IC50 is 4.79 µM.

And the IC50 [20]?
The IC50 was 4.74 µM.

And the IC50 [21]?
The IC50 was 3.49 µM.

What about the IC50 [22] of the same compound?
Its IC50 is 5.71 µM.

What about the IC50 [23] of the same compound?
The IC50 was 7 µM.

What about the IC50 [24] of the same compound?
Its IC50 is 17.7 µM.

How did the “DNA fragmentation (sub-G0/G1)” value ([1]; 1.5 µM) turn out when `Cc1cc(=O)nc([S][Ru+])[nH]1.F[P-](F)(F)(F)(F)F.c1ccc(-c2ccccn2)nc1.c1ccc(P(c2ccccc2)c2ccccc2)cc1.c1ccc(P(c2ccccc2)c2ccccc2)cc1` [Complex 2, trans-[Ru(6m2TU)(PPh3)2(bipy)]PF6] was run?
The value was 18.6%.

And the “DNA fragmentation (sub-G0/G1)” value ([1]; 3 µM)?
The value was 39.1%.

And the “DNA fragmentation (sub-G0/G1)” value ([1]; 6 µM)?
The value was 72.9%.

And the IC50 [2]?
Its IC50 is 3.48 µM.

And the IC50 [3]?
Its IC50 is 3.63 µM.

And the IC50 [4]?
The IC50 was 7.29 µM.

And the IC50 [5]?
The IC50 was 7.69 µM.

What about the IC50 [6] of the same compound?
Its IC50 is 1.6 µM and 1.62 µM.

What about the IC50 [7] of the same compound?
The IC50 was 10.5 µM.

And the IC50 [8]?
The IC50 was 2 µM.

And the IC50 [9]?
Its IC50 is 4.09 µM.

What about the IC50 [10] of the same compound?
The IC50 was 6.47 µM.

What about the IC50 [11] of the same compound?
The IC50 was 2.54 µM.

And the IC50 [12]?
Its IC50 is 4.31 µM.

And the IC50 [13]?
The IC50 was 3.77 µM.

What about the IC50 [14] of the same compound?
The IC50 was 3.69 µM.

What about the IC50 [15] of the same compound?
The IC50 was 3.74 µM.

What about the IC50 [16] of the same compound?
The IC50 was 4.94 µM.

What about the IC50 [17] of the same compound?
The IC50 was 2.95 µM.

And the IC50 [18]?
Its IC50 is 5.55 µM.

What about the IC50 [19] of the same compound?
Its IC50 is 5.25 µM.

What about the IC50 [20] of the same compound?
Its IC50 is 4.52 µM.

And the IC50 [21]?
Its IC50 is 3.17 µM.

And the IC50 [22]?
The IC50 was 4.11 µM.

What about the IC50 [23] of the same compound?
The IC50 was 7.8 µM and 7.79 µM.

What about the IC50 [24] of the same compound?
The IC50 was 15.2 µM.

What about the IC50 ([24]; listed as 2) of the same compound?
The IC50 was 15.2 µM.
